Measured values published in US7109193B2, “Tricyclic diazepines tocolytic oxytocin receptor antagonists” (Wyeth, priority 2001, dated 2006).
Where a name gives a salt, the structure may show the parent alone.

Target: T1, human vasopressin V1a receptor subtype (Homo sapiens, UniProt P37288)
T1 construct: host or cells: CHO cells (pZeoSV vector for the Thibonnier line)
Experiment: Vasopressin binding in Chinese Hamster Ovary cell membranes expressing human vasopressin V1a subtype receptors
Conditions: CHO cell membranes, [3H]Manning ligand; for IC50: values in parentheses; for inhibition at 0.1 µM: 100 nM, values without parentheses
Summary of the method: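 Displacement of [3H]Manning ligand (8 nM working solution) from human V1a receptors in CHO cell membranes, 25–50 μg protein per well. Incubation ran 60 min at room temperature in 50 mM Tris-HCl pH 7.4 with protease inhibitors, followed by filtration and scintillation counting. Results are given as IC50 or percent inhibition.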

T1 sequence (P37288 whole entry): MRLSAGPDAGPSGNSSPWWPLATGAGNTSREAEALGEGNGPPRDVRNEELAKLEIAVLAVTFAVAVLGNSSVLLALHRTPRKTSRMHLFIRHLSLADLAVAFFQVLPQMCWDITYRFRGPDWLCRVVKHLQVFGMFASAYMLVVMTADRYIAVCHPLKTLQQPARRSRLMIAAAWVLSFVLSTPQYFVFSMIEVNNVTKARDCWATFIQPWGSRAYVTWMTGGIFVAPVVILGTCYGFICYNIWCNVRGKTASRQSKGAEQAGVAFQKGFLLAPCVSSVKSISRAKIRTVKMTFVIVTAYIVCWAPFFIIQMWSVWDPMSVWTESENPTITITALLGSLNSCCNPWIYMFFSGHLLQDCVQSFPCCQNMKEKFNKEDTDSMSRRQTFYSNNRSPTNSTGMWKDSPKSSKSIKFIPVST

Row | IC50 [nM] | inhibition at 0.1 µM [%] | SMILES
1 | 311 | – | COc1cccc(-c2cc(OC)c(C(=O)N3Cc4ccc(C(=O)N(C)CCCN(C)C)n4Cc4ccccc43)cc2Cl)c1 [Example 99, 10-[(6-Chloro-3,3′-dimethoxy[1,1′-biphenyl]-4-yl)carbonyl]-N-[3-(dimethylamino)propyl]-N-methyl-10,11-dihydro-5H-pyrrolo[2,1-c][1,4]benzodiazepine-3-carboxamide]
2 | – | 28 | COc1ccccc1-c1ccc(C(=O)N2Cc3ccc(C(=O)N(C)CCN(C)C)n3Cc3ccccc32)cc1OC [Example 94, 10-[(2,2′-Dimethoxy[1,1′-biphenyl]-4-yl)carbonyl]-N-[2-(dimethylamino)ethyl]-N-methyl-10,11-dihydro-5H-pyrrolo[2,1-c][1,4]benzodiazepine-3-carboxamide]
3 | – | 44 | COc1ccccc1-c1ccc(C(=O)N2Cc3ccc(C(=O)N(C)CCN(C)C)n3Cc3ccccc32)cc1C [Example 88, N-[2-(Dimethylamino)ethyl]-10-[(2′-methoxy-2-methyl[1,1′-biphenyl]-4-yl)carbonyl]-N-methyl-10,11-dihydro-5H-pyrrolo[2,1-c][1,4]benzodiazepine-3-carboxamide]
4 | 1810 | – | C=CCN1CCN(C(=O)c2ccc3n2Cc2ccccc2N(C(=O)c2cc(Cl)c(-c4ccccc4C)cc2OC)C3)CC1 [Example 219, (4-Allyl-1-piperazinyl){10-[(6-chloro-3-methoxy-2′-methyl[1,1′-biphenyl]-4-yl)carbonyl]-10,11-dihydro-5H-pyrrolo[2,1-c][1,4]benzodiazepin-3-yl}methanone]
5 | 367 | – | COc1ccccc1-c1ccc(C(=O)N2Cc3ccc(C(=O)N4CCN(CCN(C)C)CC4)n3Cc3ccccc32)cc1C [Example 195, {4-[2-(Dimethylamino)ethyl]-1-piperazinyl}{10-[(2′-methoxy-2-methyl[1,1′-biphenyl]-4-yl)carbonyl]-10,11-dihydro-5H-pyrrolo[2,1-c][1,4]benzodiazepin-3-yl}methanone]
6 | 2480 | – | Cc1cc(C(=O)N2Cc3ccc(C(=O)N4CCNCC4)n3Cc3ccccc32)ccc1-c1ccccc1C(F)(F)F [Example 7, 10,11-Dihydro-10-[[2-methyl-2′-trifluoromethyl-[1,1′-biphenyl]-4-yl]carbonyl]-3-(1-piperazinylcarbonyl)-5H-pyrrolo[2,1-c][1,4]benzodiazepine hydrochloride salt]
7 | 2720 | – | Cc1cc(C(=O)N2Cc3ccc(C(=O)N4CCN(C)CC4)n3Cc3ccccc32)ccc1-c1ccccc1C(F)(F)F [Example 2, (4-Methyl-piperazin-1-yl)-[10-(2-methyl-2′-trifluoromethyl-[1,1′-biphenyl]-4-yl)-carbonyl]-10,11-dihydro-5H-pyrrolo[2,1-c][1,4]benzodiazepin-3-yl-methanone]
8 | – | 43 | COc1ccccc1-c1ccc(C(=O)N2Cc3ccc(C(=O)N(C)CCCN(C)C)n3Cc3ccccc32)cc1 [Example 103, N-[3-(Dimethylamino)propyl]-10-[(2′-methoxy[1,1′-biphenyl]-4-yl)carbonyl]-N-methyl-10,11-dihydro-5H-pyrrolo[2,1-c][1,4]benzodiazepine-3-carboxamide]
9 | 488 | – | COc1ccccc1-c1ccc(C(=O)N2Cc3ccc(C(=O)N4CCN(CCN5CCOCC5)CC4)n3Cc3ccccc32)cc1 [Example 207, {10-[(2′-Methoxy[1,1′-biphenyl]-4-yl)carbonyl]-10,11-dihydro-5H-pyrrolo[2,1-c][1,4]benzodiazepin-3-yl}{4-[2-(4-morpholinyl)ethyl]-1-piperazinyl}methanone]
10 | 481 | – | COc1cc(-c2ccccc2C)c(Cl)cc1C(=O)N1Cc2ccc(C(=O)N3CC[C@@H](N(C)C)C3)n2Cc2ccccc21 [Example 273, {10-[(6-Chloro-3-methoxy-2′-methyl[1,1′-biphenyl]-4-yl)carbonyl]-10,11-dihydro-5H-pyrrolo[2,1-c][1,4]benzodiazepin-3-yl}[(3R)-3-(dimethylamino)pyrrolidinyl]methanone]
11 | 387 | – | C=CCN1CCN(C(=O)c2ccc3n2Cc2ccccc2N(C(=O)c2ccc(-c4ccccc4C)c(C)c2)C3)CC1 [Example 220, (4-Allyl-1-piperazinyl){10-[(2,2′-dimethyl[1,1′-biphenyl]-4-yl)carbonyl]-10,11-dihydro-5H -pyrrolo[2,1-c][1,4]benzodiazepin-3-yl}methanone]
12 | 202 | – | COc1cccc(-c2ccc(C(=O)N3Cc4ccc(C(=O)N5CCC[C@H]5CN5CCCC5)n4Cc4ccccc43)cc2C)c1 [Example 263, {10-[(3′-Methoxy-2-methyl[1,1′-biphenyl]-4-yl)carbonyl]-10,11-dihydro-5H-pyrrolo[2,1-c][1,4]benzodiazepin-3-yl}[(2S)-2-(1-pyrrolidinylmethyl)pyrrolidinyl]methanone]
13 | 1890 | – | Cc1cc(C(=O)N2Cc3ccc(C(=O)N4CCCN(C)CC4)n3Cc3ccccc32)ccc1-c1ccccc1C(F)(F)F [Example 59, (4-Methyl-1,4-diazepan-1-yl)(10-{[2-methyl-2′-(trifluoromethyl)[1,1′-biphenyl]-4-yl]carbonyl}-10,11-dihydro-5H-pyrrolo[2,1-c][1,4]benzodiazepin-3-yl)methanone]
14 | 913 | – | Cc1cc(C(=O)N2Cc3ccc(C(=O)N4CCC[C@H]4CN4CCCC4)n3Cc3ccccc32)ccc1-c1ccccc1C(F)(F)F [Example 258, (10-{[2-Methyl-2′-(trifluoromethyl)[1,1′-biphenyl]-4-yl]carbonyl}-10,11-dihydro-5H-pyrrolo[2,1-c][1,4]benzodiazepin-3-yl)[(2S)-2-(1-pyrrolidinylmethyl)pyrrolidinyl]methanone]
15 | 1240 | – | Cc1cc(C(=O)N2Cc3ccc(C(=O)N4CCN(CCN(C)C)CC4)n3Cc3ccccc32)ccc1-c1ccccc1C(F)(F)F [Example 196, {4-[2-(Dimethylamino)ethyl]-1-piperazinyl}(10-{[2-methyl-2′-(trifluoromethyl)[1,1′-biphenyl]-4-yl]carbonyl}-10,11-dihydro-5H-pyrrolo[2,1-c][1,4]benzodiazepin-3-yl)methanone]
16 | 312 | – | COc1cc(-c2ccccc2Cl)c(Cl)cc1C(=O)N1Cc2ccc(C(=O)N(C)C3CCN(C)CC3)n2Cc2ccccc21 [Example 43, 10-[(2′-Chloro-6-chloro-3-methoxy-[1,1′-biphenyl]-4-yl)carbonyl]-N-methyl-N-(1-methylpiperidin-4-yl)-10,11-dihydro-5H-pyrrolo[2,1-c][1,4]benzodiazepine-3-carboxamide]
17 | – | 90 | Cc1ccccc1-c1ccc(C(=O)N2Cc3ccc(C(=O)N(C)CCN(C)C)n3Cc3ccccc32)cc1 [Example 91, N-[2-(Dimethylamino)ethyl]-N-methyl-10-[(2′-methyl[1,1′-biphenyl]-4-yl)carbonyl]-10,11-dihydro-5H-pyrrolo[2,1-c][1,4]benzodiazepine-3-carboxamide]
18 | 1000 | – | COc1cc(-c2ccccc2C)c(Cl)cc1C(=O)N1Cc2ccc(C(=O)N3CCN(C)CC3)n2Cc2ccccc21 [Example 47, {10-[(6-Chloro-3-methoxy-2′-methyl[1,1′-biphenyl]-4-yl)carbonyl]-10,11-dihydro-5H-pyrrolo[2,1-c][1,4]benzodiazepin-3-yl}(4-methyl-1-piperazinyl)methanone]
19 | 484 | – | COc1ccccc1-c1ccc(C(=O)N2Cc3ccc(C(=O)N4CCN(C)CC4)n3Cc3ccccc32)cc1 [Example 48, {10-[(2′-Methoxy[1,1′-biphenyl]-4-yl)carbonyl]-10,11-dihydro-5H-pyrrolo[2,1-c][1,4]benzodiazepin-3-yl}(4-methyl-1-piperazinyl)methanone]
20 | – | 85 | Cc1ccccc1-c1ccc(C(=O)N2Cc3ccc(C(=O)N(C)CCCN(C)C)n3Cc3ccccc32)cc1 [Example 104, N-[3-(Dimethylamino)propyl]-N-methyl-10-[(2′-methyl[1,1′-biphenyl]-4-yl)carbonyl]-10,11-dihydro-5H-pyrrolo[2,1-c][1,4]benzodiazepine-3-carboxamide]
21 | 681 | – | COc1cc(-c2ccccc2C)c(Cl)cc1C(=O)N1Cc2ccc(C(=O)N3CCCN(C)CC3)n2Cc2ccccc21 [Example 60, {10-[(6-Chloro-3-methoxy-2′-methyl[1,1′-biphenyl]-4-yl)carbonyl]-10,11-dihydro-5H-pyrrolo[2,1-c][1,4]benzodiazepin-3-yl}(4-methyl-1,4-diazepan-1-yl)methanone]
22 | 301 | – | COc1ccccc1-c1ccc(C(=O)N2Cc3ccc(C(=O)N4CC[C@@H](N(C)C)C4)n3Cc3ccccc32)cc1C [Example 272, [(3R)-3-(Dimethylamino)pyrrolidinyl]{10-[(2′-methoxy-2-methyl[1,1′-biphenyl]-4-yl)carbonyl]-10,11-dihydro-5H-pyrrolo[2,1-c][1,4]benzodiazepin-3-yl}methanone]
23 | 661 | – | COc1cc(-c2ccccc2C)c(Cl)cc1C(=O)N1Cc2ccc(C(=O)N3CCC(N4CCCCC4)CC3)n2Cc2ccccc21 [Example 110, {10-[(6-Chloro-3-methoxy-2′-methyl[1,1′-biphenyl]-4-yl)carbonyl]-10,11-dihydro-5H-pyrrolo[2,1-c][1,4]benzodiazepin-3-yl}[4-(1-piperidinyl)-1-piperidinyl]methanone]
24 | 1370 | – | Cc1cc(C(=O)N2Cc3ccc(C(=O)NC(=N)N)n3Cc3ccccc32)ccc1-c1ccccc1C(F)(F)F [Example 8, N-[(10-{[2-methyl-2′-(trifluoromethyl)[1,1′-biphenyl]-4-yl]carbonyl}-10,11-dihydro-5H-pyrrolo[2,1-c][1,4]benzodiazepin-3-yl)carbonyl]guanidine]
25 | 538 | – | COc1cc(-c2ccccc2C)c(Cl)cc1C(=O)N1Cc2ccc(C(=O)N3CCC(N4CCCC4)CC3)n2Cc2ccccc21 [Example 136, {10-[(6-Chloro-3-methoxy-2′-methyl[1,1′-biphenyl]-4-yl)carbonyl]-10,11-dihydro-5H-pyrrolo[2,1-c][1,4]benzodiazepin-3-yl}[4-(1-pyrrolidinyl)-1-piperidinyl]methanone]
